Reference: patent US11414429B2, “Compound or pharmaceutically acceptable salt thereof” (RIKEN, priority 2016, dated 2022)

How the values were obtained:
[1] = biological target: T1, tankyrase 1 (TNKS 1) (Homo sapiens, UniProt O95271); assay: Tankyrase inhibitory activity test (ELISA, self-polyADP ribosylation), tankyrase 1; type: biochemical; conditions: ELISA, self-polyADP ribosylation; class symbols; read-out: TNKS1 (inhibitory activity against tankyrase 1, IC50 value)
T1 construct: 1,024-1,327aa; made in house; host or cells: cell-free protein synthesis system
Method in brief: (§1)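 Flag-tagged TNKS1 (1,024-1,327aa, SAM+PARP) and TNKS2 (613-1,116aa, ANK5+SAM+PARP) were made cell-free and captured overnight at 4 °C on anti-FLAG M2 plates. After 10 min compound preincubation in Tris pH 8.0/MgCl2/DTT buffer, NAD (225 μM) plus biotin-NAD (25 μM) solution was added for 45 min at 30 °C. Auto-PARylation was read by streptavidin-HRP chemiluminescence, giving IC50 from residual activity.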

[2] = tested on: human colorectal cancer cell line, COLO-320DM; assay: Cell proliferation inhibitory activity test (Celltiter-Glo Luminescent Cell Viability Assay); type: cell-based; conditions: COLO-320DM cells, 96 hours, class symbols, read-out: COLO-320 DM (cell proliferation inhibitory activity, GI50 value)
Method in brief: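 Cells grown in RPMI-1640 with 10% FBS and 2 mM glutamine, seeded overnight, then exposed to compound (1% DMSO final) for 96 h at 37° C., 5% CO2. Viability read by ATP luminescence; GI50 is the concentration reducing cell growth to 50% of DMSO control.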

[3] = biological target: T2, tankyrase 2 (TNKS 2) (Homo sapiens, UniProt Q9H2K2); assay: Tankyrase inhibitory activity test (ELISA, self-polyADP ribosylation), tankyrase 2; type: biochemical; conditions: ELISA, self-polyADP ribosylation; class symbols; read-out: TNKS2 (inhibitory activity against tankyrase 2, IC50 value)
T2 construct: 613-1, 116aa; made in house; host or cells: cell-free protein synthesis system
Method in brief: as §1

T1 sequence (O95271 1024-1327): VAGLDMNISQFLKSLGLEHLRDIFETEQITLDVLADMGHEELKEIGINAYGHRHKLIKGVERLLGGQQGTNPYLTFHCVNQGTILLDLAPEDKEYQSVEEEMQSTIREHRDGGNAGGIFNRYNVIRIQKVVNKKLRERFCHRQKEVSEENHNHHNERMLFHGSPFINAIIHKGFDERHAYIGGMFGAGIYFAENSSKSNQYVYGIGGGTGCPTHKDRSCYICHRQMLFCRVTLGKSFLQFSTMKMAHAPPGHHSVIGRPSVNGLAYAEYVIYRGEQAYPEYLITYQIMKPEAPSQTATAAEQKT
T2 sequence (Q9H2K2 613-1166): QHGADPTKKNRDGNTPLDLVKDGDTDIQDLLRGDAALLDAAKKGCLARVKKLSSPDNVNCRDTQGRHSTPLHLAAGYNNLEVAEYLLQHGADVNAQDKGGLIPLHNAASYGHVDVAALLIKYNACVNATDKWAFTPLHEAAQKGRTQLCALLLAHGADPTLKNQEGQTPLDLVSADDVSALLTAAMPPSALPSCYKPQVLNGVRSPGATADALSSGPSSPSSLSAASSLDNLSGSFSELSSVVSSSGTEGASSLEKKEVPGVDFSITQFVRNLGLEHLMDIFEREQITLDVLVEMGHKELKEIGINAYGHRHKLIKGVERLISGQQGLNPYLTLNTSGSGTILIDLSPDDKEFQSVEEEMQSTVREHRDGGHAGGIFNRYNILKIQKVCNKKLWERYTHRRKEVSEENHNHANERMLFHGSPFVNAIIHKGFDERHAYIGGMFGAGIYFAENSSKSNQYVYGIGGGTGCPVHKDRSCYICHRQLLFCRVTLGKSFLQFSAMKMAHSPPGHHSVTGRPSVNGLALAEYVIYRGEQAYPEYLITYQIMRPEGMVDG

Row | Structure (SMILES) | IC50 [1] [µM] | GI50 [2] [µM] | IC50 [3] [µM]
1 | CN(C)CCOc1ccc(Cl)c2c1N(C)C(=O)C21CCN(c2nc3c(c(=O)[nH]2)CCCN3C)CC1 [Example 396, 4-chloro-7-[2-(dimethylamino)ethoxy]-1-methyl-1′-(8-methyl-4-oxo-3,4,5,6,7,8-hexahydro-pyrido [2,3-d]pyrimidin-2-yl)spiro [indoline-3,4′-piperidin]-2(1H)-one] | < 0.02 | 0.1 to 0.6 | < 0.02
2 | CN1CCCc2c1nc(N1CCC3(CC1)C(=O)N(C)c1cc(N4CCN(C5COC5)CC4)cc(F)c13)[nH]c2=O [Example 398, 4-fluoro-1-methyl-1′-(8-methyl-4-oxo-3,4,5,6,7,8-hexahydro-pyrido [2,3-d]pyrimidin-2-yl)-6-(4-(oxetan-3-yl)piperazin-1-yl)spiro [indoline-3,4′-piperidin]-2(1H)-one] | < 0.02 | 0.1 to 0.6 | < 0.02
3 | CN(C)CCOc1cc(F)c2c(c1)N(CC(F)(F)F)C(=O)C21CCN(c2nc3c(c(=O)[nH]2)CCCN3C)CC1 [Example 400, 6-[2-(di-methylamino)ethoxy]-4-fluoro-1′-(8-methyl-4-oxo-3,4,5,6,7,8-hexahydro-pyrido [2,3-d]pyrimidin-2-yl)-1-(2,2,2-trifluoroethyl) spiro[indoline-3,4′-piperidin]-2(1H)-one] | 0.02 to 0.2 | 0.1 to 0.6 | 0.02 to 0.2
4 | CN(C)CCOc1ccc(F)c2c1N(C)C(=O)C21CCN(c2nc3c(c(=O)[nH]2)CCCN3C)CC1 [Example 401, 7-[2-(dimethylamino)ethoxy]-4-fluoro-1′-(4-hy-droxy-8-methyl-6,7-di-hydro-5H-pyrido[2,3-d]pyrimidin-2-yl)-1-methyl spiro[indole-3,4′-piperidin]-2-one] | < 0.02 | 0.1 to 0.6 | < 0.02
5 | CN1CCN(c2cc(F)c3c(c2)N(CC#N)C(=O)C32CCN(c3nc4c(c(=O)[nH]3)CCCN4C)CC2)CC1 [Example 402, [4-fluoro-1′-(8-methyl-4-oxo-3,4,5,6,7,8-hexahydropyrido [2,3-d]py-rimidin-2-yl)-6-(4-methyl-piperazin-1-yl)-2-oxo-spiro[indoline-3,4′-piperidin]-1(2H)-yl] acetonitrile] | 0.02 to 0.2 | 0.1 to 0.6 | < 0.02
6 | CC(=O)N1CCN(c2cc(F)c3c(c2)N(C)C(=O)C32CCN(c3nc4c(c(=O)[nH]3)CCCN4C)CC2)CC1 [Example 403, 6-(4-acetylpiperazin-1-yl)-4-fluoro-1-methyl-1′-(8-methyl-4-oxo-3,4,5,6,7,8-hexahydropy-rido[2,3-d]pyrimidin-2-yl)-spiro [indoline-3,4′-piperidin]-2(1H)-one] | < 0.02 | 0.1 to 0.6 | < 0.02
7 | CN1CCCc2c1nc(N1CCC3(CC1)C(=O)N(C)c1c(OCC(=O)O)ccc(F)c13)[nH]c2=O [Example 412, 2-[4-fluoro-1′-(4-hy-droxy-8-methyl-6,7-di-hydro-5H-pyrido[2,3-d]pyrimidin-2-yl)-1-meth-yl-2-oxospiro[indole-3,4′-piperidin]-7-yl] oxyacetic acid] | < 0.02 | 0.6 to 1 | < 0.02
8 | CN1CCC(COc2ccc(F)c3c2N(C)C(=O)C32CCN(c3nc4c(c(=O)[nH]3)CCCN4C)CC2)CC1 [Example 413] | 0.02 to 0.2 | 0.6 to 1 | < 0.02
9 | CN1C(=O)C2(CCN(c3nc4c(c(=O)[nH]3)CCCN4)CC2)c2c(F)ccc(OCCO)c21 [Example 414, 4-fluoro-7-(2-hydroxy-ethoxy)-1′-(4-hydroxy-5,6,7,8-tetrahdyro-pyrido[2,3-d]pyrimidin-2-yl)-1-methyl-spiro [indole-3,4′-piperidin]-2-one] | < 0.02 | 0.6 to 1 | < 0.02
10 | CN1CCCc2c1nc(N1CCC3(CC1)C(=O)N(C)c1c(OCc4nnn[nH]4)ccc(Cl)c13)[nH]c2=O [Example 415, 4-chloro-1′-(4-hydroxy-8-methyl-6,7-dihydro-5H-pyrido[2,3-b]py-rimidin-2-yl)-1-meth-yl-7-(2H-tetrazol-5-yl-methoxy)spiro[indole-3,4′-piperidin]-2-one] | < 0.02 | 0.6 to 1 | < 0.02

Second part, the compound after the results:

Row | IC50 [1] [µM] | GI50 [2] [µM] | IC50 [3] [µM] | Structure (SMILES)
11 | < 0.02 | 0.1 to 0.6 | < 0.02 | CN1CCCc2c1nc(N1CCC3(CC1)C(=O)N(C)c1cc(OCc4nnn[nH]4)cc(F)c13)[nH]c2=O [Example 393, 6-[(1H-tetrazol-5-yl)methoxy]-4-fluoro-1-methyl-1′-(8-methyl-4-oxo-3,4,5,6,7,8-hexahydropyrido [2,3-d]pyrimidin-2-yl)spiro [indoline-3,4′-piperidin]-2(1H)-one]
12 | < 0.02 | 0.6 to 1 | < 0.02 | CN1CCCc2c1nc(N1CCC3(CC1)C(=O)N(C)c1cc(OCCN4CCCC4CO)cc(F)c13)[nH]c2=O (stereo not drawn) [Example 394, 4-fluoro-6-{2-[2-(hy-droxymethyl)pyrrolidin-1-yl]ethoxy}-1-methyl-1′-(8-methyl-4-oxo-3,4,5,6,7,8-hexahydropyrido [2,3-d]pyrimidin-2-yl)spiro [indoline-3,4′-piperidin]-2(1H)-one]
13 | < 0.02 | 0.6 to 1 | < 0.02 | CN1CCCc2c(O)nc(N3CCC4(CC3)OC(=O)c3cc(OCCN5CCCC5)cc(F)c34)nc21 [Example 395, 4-fluoro-1′-(4-hydroxy-8-methyl-6,7-dihydro-5H-pyrido[2,3-d]pyrimidin-2-yl)-6-(2-pyrrolidin-1-ylethoxy)spiro[2-benzofuran-3,4′-piperidine]-1-one]
14 | 0.02 to 0.2 | 0.1 to 0.6 | 0.02 to 0.2 | COCCN1CCN(c2cc(F)c3c(c2)N(C)C(=O)C32CCN(c3nc4c(c(=O)[nH]3)CCCN4C)CC2)CC1 [Example 397, 4-fluoro-6-(4-(2-methoxy-ethyl)piperazin-1-yl)-1-methyl-1′-(8-methyl-4-oxo-3,4,5,6,7,8-hexahydro-pyrido [2,3-d]pyrimidin-2-yl) spiro[indoline-3,4′-piperidin]-2(1H)-one]
15 | < 0.02 | 0.1 to 0.6 | < 0.02 | CN1CCCc2c1nc(N1CCC3(CC1)C(=O)N(CC(F)(F)F)c1cc(OCCO)cc(F)c13)[nH]c2=O [Example 399, 4-fluoro-6-(2-hydroxy-ethoxy)-1′-(8-methyl-4-oxo-3,4,5,6,7,8-hexahydro-pyrido [2,3-d]pyri-midin-2-yl)-1-(2,2,2-trifluoroethyl) spiro [indoline-3,4′-piperidin]-2(1H)-one]
16 | 0.02 to 0.2 | 0.6 to 1 | 0.02 to 0.2 | CN1CCCc2c1nc(N1CCC3(CC1)C(=O)N(CC(F)(F)F)c1cc(OCCN4CCCC4)cc(F)c13)[nH]c2=O [Example 404, 4-fluoro-1′-(8-methyl-4-oxo-3,4,5,6,7,8-hexa hydropyrido [2,3-d]pyrimidin-2-yl)-6-[2-(pyrroli-din-1-yl)ethoxy]-1-(2,2,2-trifluoroethyl) spiro [indoline-3,4′-piperidin]-2(1H)-one]
17 | < 0.02 | 0.6 to 1 | < 0.02 | COCCN1C(=O)C2(CCN(c3nc4c(c(=O)[nH]3)CCCN4C)CC2)c2c(F)cc(OCCN(C)C)cc21 [Example 405]
18 | 0.02 to 0.2 | < 0.1 | 0.02 to 0.2 | CN1CCN(CCOc2cc(F)c3c(c2)N(CC(F)(F)F)C(=O)C32CCN(c3nc4c(c(=O)[nH]3)CCCN4C)CC2)CC1 [Example 406, 4-fluoro-1′-(8-methyl-4-oxo-3,4,5,6,7,8-hex-ahydropyrido[2,3-d]pyrimidin-2-yl)-6-[2-(4-methylpiperazin-1-yl)ethoxy]-1-(2,2,2-trifluoroethyl)spiro [indoline-3,4′-piperidin]-2(1H)-one]
19 | 0.02 to 0.2 | 0.1 to 0.6 | < 0.02 | COCCN1C(=O)C2(CCN(c3nc4c(c(=O)[nH]3)CCCN4C)CC2)c2c(F)cc(N3CCN(C)CC3)cc21 [Example 407, 4-fluoro-1-(2-methoxy-ethyl)-1′-(8-methyl-4-oxo-3,4,5,6,7,8-hexahydropyrido[2,3-d]pyrimidin-2-yl)-6-(4-methylpiperazin-1-yl) spiro[indoline-3,4′-piperidin]-2(1H)-one]
20 | < 0.02 | 0.6 to 1 | < 0.02 | COCCN1C(=O)C2(CCN(c3nc4c(c(=O)[nH]3)CCCN4C)CC2)c2c(F)cc(OCC(=O)O)cc21 [Example 409]
21 | < 0.02 | 0.1 to 0.6 | < 0.02 | COCCN1C(=O)C2(CCN(c3nc4c(c(=O)[nH]3)CCCN4C)CC2)c2c(F)cc(OCCO)cc21 [Example 410, 4-fluoro-6-(2-hydroxy-ethoxy)-1-(2-methoxyethyl)-1′-(8-methyl-4-oxo-3,4,5,6,7,8-hexahydro-pyrido[2,3-d]pyrimi-din-2-yl)spiro[indoline-3,4′-piperidin]-2(1H)-one]
22 | < 0.02 | 0.1 to 0.6 | < 0.02 | COCCN1C(=O)C2(CCN(c3nc4c(c(=O)[nH]3)CCCN4C)CC2)c2c(F)cc(N3CCNCC3)cc21 [Example 416]
